Calls of active or inactive are those of the source.
Key:
[1] = A cytotoxicity screen of small molecule inhibitors of the PhoP region in Salmonella typhi identified in the primary screen. [Related pubchem assays: 1850, 1864, 1985 ]; type: functional
[2] = target: T1, Aspartyl aminopeptidase (Plasmodium falciparum 3D7, UniProt Q8I2J3)
T1 sequence (Q8I2J3 whole entry): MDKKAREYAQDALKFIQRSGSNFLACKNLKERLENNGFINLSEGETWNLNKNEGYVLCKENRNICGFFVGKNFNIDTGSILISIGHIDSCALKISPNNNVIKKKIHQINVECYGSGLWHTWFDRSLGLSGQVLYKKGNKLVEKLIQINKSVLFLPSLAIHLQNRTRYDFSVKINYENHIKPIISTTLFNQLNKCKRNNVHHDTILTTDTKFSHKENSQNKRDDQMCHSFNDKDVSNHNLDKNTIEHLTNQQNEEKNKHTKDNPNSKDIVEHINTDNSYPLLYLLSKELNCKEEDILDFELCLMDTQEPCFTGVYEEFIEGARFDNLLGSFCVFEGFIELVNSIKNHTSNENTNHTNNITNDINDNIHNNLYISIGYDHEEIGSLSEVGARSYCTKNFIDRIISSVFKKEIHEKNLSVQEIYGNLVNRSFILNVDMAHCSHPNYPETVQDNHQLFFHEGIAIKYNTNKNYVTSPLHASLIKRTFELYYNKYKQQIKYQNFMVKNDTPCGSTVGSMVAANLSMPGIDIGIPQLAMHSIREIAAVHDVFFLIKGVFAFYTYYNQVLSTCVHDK

[3] = target: T2, Procathepsin L (Homo sapiens, UniProt P07711)
T2 sequence (P07711 whole entry): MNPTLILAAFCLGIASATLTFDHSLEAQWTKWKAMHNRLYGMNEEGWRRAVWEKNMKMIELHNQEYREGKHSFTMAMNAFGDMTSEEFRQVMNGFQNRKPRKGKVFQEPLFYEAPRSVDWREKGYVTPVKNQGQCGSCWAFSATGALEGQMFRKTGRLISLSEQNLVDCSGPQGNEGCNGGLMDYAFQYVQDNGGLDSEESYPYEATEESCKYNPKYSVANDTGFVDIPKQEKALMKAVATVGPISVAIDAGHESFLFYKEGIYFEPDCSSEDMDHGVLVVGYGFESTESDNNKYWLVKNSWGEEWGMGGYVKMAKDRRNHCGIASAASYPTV

[4] = target: T1, Aspartyl aminopeptidase; experiment: Counterscreen for inhibitors of M1 and M17 aminopeptidases: QFRET-based biochemical high throughput dose response assay for inhibitors of the Plasmodium falciparum M18 Aspartyl Aminopeptidase (PFM18AAP). [Related PubChem assays: 1619 (Screening assay (M17LAP inhibitors).), 1445 (Screening assay (M1AAP inhibitors).)]
[5] = target: T2, Procathepsin L; experiment: CTSL1 protease inhibition – biochemical, QFRET, 1536-well, counter-screen for M1/M17 aminopeptidase inhibitor project, dose response (AID 2214)
[6] = target: T3, Leucine aminopeptidase (Plasmodium falciparum 3D7, UniProt Q8IL11); experiment: P. falciparum M17LAP inhibitors, primary screen, biochemical, fluorogenic H-Leu-NHMec substrate, 1536-well (AID 1619); type: functional
T3 sequence (Q8IL11 whole entry): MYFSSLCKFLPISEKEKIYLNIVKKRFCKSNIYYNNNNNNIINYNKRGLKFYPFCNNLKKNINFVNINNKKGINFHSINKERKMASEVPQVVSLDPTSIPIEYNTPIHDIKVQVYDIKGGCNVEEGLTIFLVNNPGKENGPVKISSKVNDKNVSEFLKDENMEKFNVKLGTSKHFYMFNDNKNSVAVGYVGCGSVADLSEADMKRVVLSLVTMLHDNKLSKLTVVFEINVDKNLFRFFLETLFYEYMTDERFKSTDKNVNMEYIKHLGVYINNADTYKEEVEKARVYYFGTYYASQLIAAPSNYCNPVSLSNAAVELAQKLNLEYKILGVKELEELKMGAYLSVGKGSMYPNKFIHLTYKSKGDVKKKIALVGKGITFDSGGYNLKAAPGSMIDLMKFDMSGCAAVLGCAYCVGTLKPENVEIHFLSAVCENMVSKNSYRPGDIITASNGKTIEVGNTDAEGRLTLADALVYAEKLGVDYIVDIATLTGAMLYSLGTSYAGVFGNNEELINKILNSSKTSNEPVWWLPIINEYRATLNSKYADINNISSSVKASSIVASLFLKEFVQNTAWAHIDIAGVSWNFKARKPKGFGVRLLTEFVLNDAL

[7] = test system: H4; experiment: Luminescence Cell-Based Dose Response HTS to Identify Activators of 5'UTR Stem-Loop Driven Prion Protein mRNA Translation in H4 Neuroglioblastoma Cells. [Related pubchem assays: 1829 (Project Summary), 1814 (Primary HTS)]; type: functional; conditions: Homo sapiens
[8] = Luminescence Cell-Based Dose Response HTS to Identify Activators of Luciferase Translation or Activity in H4 […] Cells. [Related pubchem assays: 1829 (Project Summary), 1814 (Primary HTS)]; type: functional
[9] = target: Dual specificity tyrosine-phosphorylation-regulated kinase 1A (Rattus norvegicus, UniProt Q63470); type: biochemical, Homo sapiens
[10] = target: T4, Short transient receptor potential channel 4 (Mus musculus, UniProt Q9QUQ5); experiment: block of DAMGO-driven TRPC4 calcium entry – cell-based, HEK293 TRPC4/mu-opioid, Fluo-4 calcium, dose response (AID 434942); type: functional;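 further: potency of inhibitors blocking the TRPC4 calcium response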
T4 sequence (Q9QUQ5 whole entry): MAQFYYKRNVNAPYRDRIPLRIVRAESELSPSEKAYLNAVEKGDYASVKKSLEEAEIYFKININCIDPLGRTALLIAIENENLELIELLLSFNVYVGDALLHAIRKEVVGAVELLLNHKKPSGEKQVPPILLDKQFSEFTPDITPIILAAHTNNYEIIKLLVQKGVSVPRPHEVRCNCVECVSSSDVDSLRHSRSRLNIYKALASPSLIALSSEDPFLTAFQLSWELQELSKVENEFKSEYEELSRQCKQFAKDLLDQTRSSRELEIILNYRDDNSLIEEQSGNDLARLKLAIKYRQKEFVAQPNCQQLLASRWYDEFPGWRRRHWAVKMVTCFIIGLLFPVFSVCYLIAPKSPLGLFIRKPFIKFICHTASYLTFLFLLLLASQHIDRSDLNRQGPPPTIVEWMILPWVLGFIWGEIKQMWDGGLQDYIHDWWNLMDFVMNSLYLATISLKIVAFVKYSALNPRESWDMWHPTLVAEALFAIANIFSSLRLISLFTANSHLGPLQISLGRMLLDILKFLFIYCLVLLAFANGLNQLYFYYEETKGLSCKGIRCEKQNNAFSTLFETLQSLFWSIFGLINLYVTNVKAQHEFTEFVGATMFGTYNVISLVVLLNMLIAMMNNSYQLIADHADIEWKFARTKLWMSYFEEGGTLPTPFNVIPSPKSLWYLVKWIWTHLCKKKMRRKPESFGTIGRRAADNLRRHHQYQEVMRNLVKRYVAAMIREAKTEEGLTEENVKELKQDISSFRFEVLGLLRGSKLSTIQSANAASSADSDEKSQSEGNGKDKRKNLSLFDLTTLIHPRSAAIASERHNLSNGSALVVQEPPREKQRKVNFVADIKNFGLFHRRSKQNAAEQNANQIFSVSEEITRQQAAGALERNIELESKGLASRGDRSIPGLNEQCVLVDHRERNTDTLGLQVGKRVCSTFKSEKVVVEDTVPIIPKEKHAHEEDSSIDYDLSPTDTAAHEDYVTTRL

CCCCOc1ccc(-c2nnn(CC(=O)Nc3ncc(CC(=O)OCC)s3)n2)cc1
EC50 [1]: > 50 µM (active)

O=C(CSc1nnc(-c2ccccc2)o1)Nn1cnnc1
IC50 [2]: 2.09 µM (active) | IC50 [3]: > 59.6 µM (not active)

CCc1cc2cc(OC)ccc2nc1SCC(=O)Nc1cc(OC)c(OC)cc1C(=O)O
IC50 [4]: > 73.5 µM (not active) | IC50 [5]: > 59.6 µM (not active) | IC50 [6]: < 1 µM (active)

Cc1cc(C(=O)COC(=O)c2ccc[nH]c2=O)c(C)n1-c1ccc(Br)cc1
IC50 [4]: > 73.5 µM (not active) | IC50 [5]: > 59.6 µM (not active) | IC50 [6]: 2.74 µM (active)

Oc1ccc(-c2csc(-c3ccccc3)n2)cc1O
EC50 [7]: 6.54 µM (active) | IC50 [2]: 2.78 µM (active) | EC50 [8]: > 120 µM (not active) | IC50 [3]: > 59.6 µM (not active) | AC50 [9]: 6.72 µM (active) | EC50 [10]: 4.73 µM (active)

O=C(Nc1ccccc1Cl)Nn1cnnc1
IC50 [2]: 1.47 µM (active) | IC50 [3]: > 59.6 µM (not active)

O=C(NCc1cccs1)C(=O)NCC(c1ccco1)N1CCN(c2ccc(F)cc2)CC1 (stereo not drawn)
EC50 [1]: > 50 µM (active)
